We go through 14 molecules from patent US20090197967A1, “COMPOSITIONS AND METHODS FOR TREATMENT OF OPHTHALMIC DISEASES AND DISORDERS” (priority 2006, published 2009).

Broadly, the IC50 is the concentration at which inhibition is half-maximal.

One assay has as its system RAR.
Assay: not given
To be noted: at micromolar concentrations; cited from earlier work.
On to `CC1=C(/C=C/C(C)=C/C=C/C(C)=C/CN)C(C)(C)CCC1` [Ret-NH2, retinylamine], for which the “interaction with RAR” value is on record as “does not interact”.

The next assay has as its target T1, visual cycle trans-cis isomerohydrolase (isomerase) (Bos taurus, UniProt Q28175).
T1 construct: Bovine Retinal Pigment Epithelium (RPE) microsome membranes were the source of visual cycle trans-cis isomerohydrolase (isomerase); from tissue; host or cells: bovine retinal pigment epithelium (RPE) microsome membranes; CRALBP made in E. coli
T1 sequence (Q28175 2-533 limits assumed): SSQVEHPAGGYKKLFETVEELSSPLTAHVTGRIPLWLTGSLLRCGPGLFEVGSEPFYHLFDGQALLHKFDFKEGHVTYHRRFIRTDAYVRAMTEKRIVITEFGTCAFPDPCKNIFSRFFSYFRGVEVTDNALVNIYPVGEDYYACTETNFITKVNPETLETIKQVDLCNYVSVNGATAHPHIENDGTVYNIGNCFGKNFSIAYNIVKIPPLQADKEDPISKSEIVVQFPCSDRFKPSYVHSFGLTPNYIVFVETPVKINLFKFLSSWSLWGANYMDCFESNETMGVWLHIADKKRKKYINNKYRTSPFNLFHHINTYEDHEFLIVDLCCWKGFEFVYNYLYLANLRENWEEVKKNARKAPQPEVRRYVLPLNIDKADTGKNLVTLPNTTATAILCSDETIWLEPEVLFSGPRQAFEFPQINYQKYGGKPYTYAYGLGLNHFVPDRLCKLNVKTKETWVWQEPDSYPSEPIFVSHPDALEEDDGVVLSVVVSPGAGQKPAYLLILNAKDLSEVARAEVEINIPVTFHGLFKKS
Description: Isomerase reaction: inhibition of isomerase by retinylamine derivative compounds (bovine RPE microsomes, HPLC read-out). The class given is biochemical. To be noted: 5 min preincubation at 37° C., 10 μM all-trans-retinol, 6 μM apo-CRALBP, 30 minutes. The procedure:
The capability of several retinylamine compounds to inhibit the activity of visual cycle trans-cis isomerohydrolase (isomerase) was determined.
Isomerase and LRAT reaction—The isomerase reaction was performed essentially as described previously (Stecher et al., J Biol Chem 274:8577-85 (1999); see also Golczak et al., supra). Bovine Retinal Pigment Epithelium (RPE) microsome membranes were the source of visual cycle trans-cis isomerohydrolase (isomerase).
RPE microsome membrane extracts may be purchased or prepared according to methods practiced in the art and stored at −80° C. Crude RPE microsome extracts were thawed in a 37° C. water bath, and then immediately placed on ice. 50 ml crude RPE microsomes were placed into a 50 ml Teflon-glass homogenizer (Fisher Scientific, catalog no. 0841416M) on ice, powered by a hand-held DeWalt drill, and homogenized ten times up and down on ice under maximum speed. This process was repeated until the crude RPE microsome solution was homogenized. The homogenate was then subjected to centrifugation (50.2 Ti rotor (Beckman, Fullerton, Calif.), 13,000 RPM; 15360 Rcf) for 15 minutes at 4° C. The supernatant was collected and subjected to centrifugation a5 42,000 RPM (160,000 Rcf, 50.2 Ti rotor) for 1 hour at 4° C. The supernatant was removed, and the pellets were suspended in 12 ml (final volume) cold 10 mM MOPS buffer, pH 7.0. The resuspended RPE membranes in 5 ml aliquots were homogenized in a glass-to-glass homogenizer (Fisher Scientific, catalog no. K885500-0021) to high homogeneity. Protein concentration was quantified using the BCA protein assay according to the manufacturer's protocol (Pierce, Rockford, Ill.; catalog no. 23227). The homogenized RPE preparations were stored at −80° C.
Recombinant human apo cellular retinaldehyde-binding protein (CRALBP) was cloned and expressed according to standard methods in the molecular biology art (see Crabb et al., Protein Science 7:746-57 (1998); Crabb et al., J. Biol. Chem. 263:18688-92 (1988)). Briefly, total RNA was prepared from confluent ARPE19 cells (American Type Culture Collection, Manassas, Va.), cDNA was synthesized using an oligo(dT)12-18 primer, and then DNA encoding CRALBP was amplified by two sequential polymerase chain reactions (see Crabb et al., J. Biol. Chem. 263:18688-92 (1988); Intres, et al., J. Biol. Chem. 269:25411-18 (1994); GenBank Accession No. L34219.1). The PCR product was sub-cloned into pTrcHis2-TOPO TA vector according to the manufacturer's protocol (Invitrogen Inc., Carlsbad, Calif.; catalog no. K4400-01), and then the sequence was confirmed according to standard nucleotide sequencing techniques. Recombinant 6×His-tagged human CRALBP was expressed in One Shot TOP 10 chemically competent E. coli cells (Invitrogen), and the recombinant polypeptide was isolated from E. coli cell lysates by nickel affinity chromatography using Ni Sepharose XKI 6-20 columns for HPLC (Amersham Bioscience, Pittsburgh, Pa.; catalog no. 17-5268-02). The purified 6×His-tagged human CRALBP was dialyzed against 10 mM bis-tris-Propane (BTP) and analyzed by SDS-PAGE. The molecular weight of the recombinant human CRALBP was approximately 39 kDal.
The isomerase assay was performed in 10 mM BTP buffer, pH 7.5, 1% BSA, containing 1 mM ATP and 6 μM apo-CRALBP (cellular retinaldehyde-binding protein). To investigate inhibition properties of retinylamine derivative compounds, RPE microsomes were preincubated for 5 min in 37° C. with a compound in 10 mM BTP buffer, pH 7.5, 1% BSA, and 1 mM ATP prior to addition of apo-CRALBP and 10 μM all-trans-retinol. Retinylamine derivative compounds were delivered to the reaction mixture in 2 μl ethanol. If the compounds were not soluble in ethanol, DMF was added until the compound was in solution. The same volume of ethanol and/or DMF was added to the control reaction (absence of test compound). […]
Take `CC1=C(/C=C/C(C)=C2C=C/C(=C/CN)CCC/2)C(C)(C)CCC1` [Cmpd 1]: the IC50 was 3.1 µM.
Still for that read-out and setting: then `CC1=C(/C=C/C(C)=C/C=C/C(C)=C/CN)C(C)(C)CCC1OCc1ccccc1` (stereo not drawn) [Cmpd 11], with 17 µM; and `CC1=C(/C=C/C(C)=C/C=C/CCCN)C(C)(C)CCC1` [Cmpd 9], with 6 µM.
Still for that read-out and setting: then `CC1=C(/C=C/C(C)=C/C=CCCCCCCN)C(C)(C)CCC1` [Cmpd 12], with 25 µM.
Same read-out and setting: then `CC1=C(/C=C/C(C)=C/C=C\CCCN)C(C)(C)CCC1` [Cmpd 8], with 0.6 µM; and `CC1=C(/C=C/C(C)N)C(C)(C)CCC1` (stereo not drawn) [Cmpd 14], with 80 µM; and `CC1=C(/C=C/C(C)=C/CN)C(C)(C)CCC1` [Cmpd 7], with 8.4 µM.
For `CC1=C(/C=C/C(C)=C/C=C/CN)C(C)(C)CCC1` [Cmpd 4], the IC50 came out at 5.8 µM.
On the same count and under the same terms, the figure for `CC1=C(/C=C/C(C)=C/C=C/CCCCCCN)C(C)(C)CCC1` [Cmpd 13] is 200 µM.
For the molecule `CC1=C(/C=C/C(C)=C2C=C/C(=C/CN)CC/2)C(C)(C)CCC1` [Cmpd 2], the IC50 is 0.55 µM.
On the same count and under the same terms, then `CC(=CCCCCN)/C=C/C1=C(C)CCCC1(C)C` [Cmpd 5], with 1.7 µM; and `CC1=C(/C=C/C(C)=C/C=C/CCCCN)C(C)(C)CCC1` [Cmpd 10], with 14 µM; and `CC1=C(/C=C/C(C)=C/C=C/C(C)=C/CN)C(C)(C)CCC1` [Cmpd 3], with 0.7 µM.

A further assay relates to RXR.
Assay: not given
The following applies: at micromolar concentrations; cited from earlier work.
`CC1=C(/C=C/C(C)=C/C=C/C(C)=C/CN)C(C)(C)CCC1` [Ret-NH2, retinylamine]: the “interaction with RXR” value is listed as “does not interact”.
